From the supplement of paper PMC9763283

Legend:
Assay in all cases: area under growth-rate inhibition curve (AUC GRI) (dimensionless (GR-based AUC)); higher = less growth inhibition
Details in all cases: exposure time: 72 h; concentrations: 0.1, 1, 10 uM
[1] = test system: BT474-LTR
How it was run: (§1)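 Six breast cancer cell line models (two triple-negative lines, plus parental and lapatinib + trastuzumab-resistant HER2+ lines) were plated at optimised log-phase densities and exposed to compound at 0.1, 1 or 10 µM for 72 h. Cells were fixed in 4% paraformaldehyde, and nuclei were stained with Hoechst 33342 or DAPI, imaged and counted. Area under the growth-rate inhibition curve came from 2 biological replicates, with growth corrected using Day 0 plates, untreated Day 3 plates and DMSO controls.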

[2] = test system: SKBR3-LTR
How it was run: as §1

[3] = test system: MDA-MB-231
How it was run: as §1

[4] = test system: BT474-P
How it was run: as §1

[5] = test system: MDA-MB-468
How it was run: as §1

[6] = test system: SKBR3-P
How it was run: as §1

| Compound | area under growth-rate inhibition curve [1] | area under growth-rate inhibition curve [2] | area under growth-rate inhibition curve [3] | area under growth-rate inhibition curve [4] | area under growth-rate inhibition curve [5] | area under growth-rate inhibition curve [6] |
| --- | --- | --- | --- | --- | --- | --- |
| CN(C)CCOC(c1ccc(Cl)cc1)c1ccccn1 (stereo not given) [carbinoxamine] | 1.04 | 1.06 | 1.04 | 0.999 | 1.04 | 1.03 |
| N=C(N)N/N=C/c1c(Cl)cccc1Cl [Guanabenz Acetate] | 1.1 | 1.08 | 1.03 | 1.03 | 1 | 1.01 |
| CC(C)NCC(O)c1ccc(NS(C)(=O)=O)cc1.[Cl-].[H+] (stereo not given) [Sotalol] | 1.09 | 1.07 | 1.03 | 1.05 | 1.05 | 1.03 |
| CCCN1C[C@H](CSC)C[C@@H]2c3cccc4[nH]cc(c34)C[C@H]21.CS(=O)(=O)O [Pergolide mesylate] | 1.06 | 1.02 | 1.02 | 1.02 | 1.02 | 0.978 |
| CCc1c(C(=O)NCCc2ccc(N3CCCCC3)cc2)[nH]c2ccc(Cl)cc12 | 1.06 | 1.09 | 1.02 | 1.04 | 0.994 | 0.994 |
| COCCCC/C(=N\OCCN)c1ccc(C(F)(F)F)cc1.O=C(O)/C=C\C(=O)O [Fluvoxamine maleate] | 1.1 | 1.05 | 1.01 | 1.04 | 1.03 | 1.02 |
| COc1ccc(OC)c(C(O)C(C)N)c1 (stereo not given) [methoxamine] | 1.07 | 1.04 | 1.05 | 1.01 | 1.05 | 1.05 |
| CCOC(=O)NC1CCC2C(C1)CC1C(=O)OC(C)C1C2C=Cc1ccc(-c2cccc(F)c2)cn1 (stereo not given) [Vorapaxar] | 1.04 | 0.983 | 1.01 | 0.947 | 0.966 | 0.944 |
| O=C(O)c1ccc2ccccc2c1O.OCc1cc(C(O)CNCCCCCCOCCCCc2ccccc2)ccc1O (stereo not given) [Salmeterol Xinafoate] | 0.877 | 0.993 | 0.832 | 0.905 | 0.875 | 0.95 |
| CC(=O)CCCCn1c(=O)c2c(ncn2C)n(C)c1=O [Pentoxifylline] | 1.03 | 1.05 | 1.04 | 1 | 1.04 | 1.02 |
| C[NH+](C)CCCN1c2ccccc2Sc2ccc(Cl)cc21.[Cl-] [Chlorpromazine Hydrochloride] | 0.991 | 1.02 | 0.985 | 1 | 0.989 | 0.994 |
| CNCC[C@@H](Oc1ccccc1C)c1ccccc1.Cl [Atomoxetine HCl] | 1.09 | 1.05 | 1.02 | 1.04 | 1.01 | 1.01 |
| CCCNS(=O)(=O)Nc1ncnc(OCCOc2ncc(Br)cn2)c1-c1ccc(Br)cc1 [Macitentan] | 1.01 | 1.02 | 1.02 | 0.957 | 1.02 | 1.02 |
| CC(=O)OC1CC2CCC3C(CCC4(C)C3CC([N+]3(C)CCCCC3)C4OC(C)=O)C2(C)CC1[N+]1(C)CCCCC1.[Br-].[Br-] (stereo not given) [Pancuronium dibromide] | 1.06 | 0.978 | 1 | 1.01 | 1.01 | 0.989 |
| O=C(Nc1cccc(Cl)c1)c1ccccn1 | 1.06 | 1.04 | 1.03 | 1.02 | 1.02 | 1.01 |
| CCC(COC(=O)c1cc(OC)c(OC)c(OC)c1)(c1ccccc1)N(C)C (stereo not given) [Trimebutine] | 0.977 | 1 | 0.972 | 0.981 | 0.984 | 1.03 |
| COc1ccc(CN(CCN(C)C)c2ccccn2)cc1.O=C(O)/C=C\C(=O)O [Mepyramine maleate] | 1.06 | 1.05 | 1.05 | 1.03 | 1.05 | 1.05 |
| NC(N)=Nc1nc(CSCCC(N)=NS(N)(=O)=O)cs1 [Famotidine] | 1.09 | 1.08 | 1.02 | 1.02 | 1.05 | 1.03 |
| CN[C@@H]1CC[C@@H](c2ccc(Cl)c(Cl)c2)c2ccccc21.[Cl-].[H+] [Sertraline HCl] | 0.972 | 0.981 | 0.918 | 0.935 | 0.907 | 0.963 |
| Cc1cc2c(cc1CC(=O)c1sccc1S(=O)(=O)[N-]c1onc(C)c1Cl)OCO2.[Na+] [Sitaxentan sodium] | 1.08 | 1.07 | 1.04 | 1.06 | 1.04 | 1.04 |

| Compound | area under growth-rate inhibition curve [1] | area under growth-rate inhibition curve [2] | area under growth-rate inhibition curve [3] | area under growth-rate inhibition curve [4] | area under growth-rate inhibition curve [5] | area under growth-rate inhibition curve [6] |
| --- | --- | --- | --- | --- | --- | --- |
| CC(=O)O[C@]1(C(C)=O)CC[C@H]2[C@@H]3C=C(C)C4=CC(=O)CC[C@]4(C)[C@H]3CC[C@@]21C [Megestrol Acetate] | 1.09 | 1.09 | 1 | 0.978 | 1.01 | 0.968 |
| CC(C)C[C@@H]1NC(=O)[C@@H](C(C)C)NC(=O)[C@@H]2CCCN2C(=O)[C@@H](CC(=O)O)NC(=O)[C@@H](Cc2c[nH]c3ccccc23)NC1=O [BQ-123] | 1.02 | 1.03 | 0.988 | 0.983 | 0.996 | 1.01 |
| Cc1cccc(Cc2cnc[nH]2)c1C.Cl [Detomidine HCl] | 1.04 | 1.08 | 1.03 | 1.01 | 1.02 | 0.991 |
| Cc1ccc(/C(=C\CN2CCCC2)c2ccccn2)cc1.Cl [trans-Triprolidine hydrochloride] | 1.05 | 1.05 | 1.03 | 1.03 | 1.03 | 1.03 |
| CN(C)CCC[C@@]1(c2ccc(F)cc2)OCc2cc(C#N)ccc21.O=C(O)C(=O)O [Escitalopram Oxalate] | 1.1 | 1.02 | 1.02 | 1.03 | 1.02 | 0.985 |
| C[N+](C)(C)CCCCCCCCCC[N+](C)(C)C.[Br-].[Br-] [Decamethonium Bromide] | 1.1 | 1.04 | 1.04 | 1.06 | 1.03 | 1.03 |
| Cc1cc(CS(=O)(=O)c2ccccc2)cc(OCc2ccc(CN3CCC[C@@H]3CO)cc2)c1 [PF-543] | 1.01 | 1.07 | 1.01 | 0.97 | 0.99 | 1.03 |
| C[C@@H](NCCCc1cccc(C(F)(F)F)c1)c1cccc2ccccc12.[Cl-].[H+] [Cinacalcet HCl] | 0.922 | 0.883 | 0.931 | 0.9 | 0.896 | 0.909 |
| CN/C(=C\[N+](=O)[O-])NCCSCc1csc(CN(C)C)n1 [Nizatidine] | 1.07 | 1.05 | 1.02 | 1.05 | 1.04 | 1 |
| CN(C)C(=O)N[C@H]1CC[C@H](CCN2CCN(c3cccc(Cl)c3Cl)CC2)CC1 [Cariprazine] | 1.04 | 1.05 | 1.02 | 1.02 | 1.02 | 1.01 |
| CC(=O)SCC(Cc1ccccc1)C(=O)NCC(=O)OCc1ccccc1 (stereo not given) [Racecadotril] | 1.07 | 1.08 | 1.02 | 1.04 | 1.02 | 1.01 |
| CN1CCCC(n2nc(Cc3ccc(Cl)cc3)c3ccccc3c2=O)CC1.[Cl-].[H+] (stereo not given) [Azelastine HCl] | 1.06 | 1.02 | 1.02 | 1.01 | 0.985 | 0.938 |
| COc1ccccc1N1CCN(CCCNc2cc(=O)n(C)c(=O)n2C)CC1.[Cl-].[H+] [Urapidil HCl] | 1.1 | 1.09 | 1.02 | 1.03 | 1.04 | 1.04 |
| CN1c2ccccc2C(NCCCCCCC(=O)[O-])c2ccc(Cl)cc2S1(=O)=O.[Na+] (stereo not given) [Tianeptine sodium] | 1.09 | 1.02 | 1.02 | 1.06 | 1.05 | 1.01 |
| COc1nc(C)cnc1NS(=O)(=O)c1cccnc1-c1ccc(-c2nnco2)cc1 [Zibotentan (ZD4054)] | 1.07 | 1.04 | 1.03 | 1.02 | 1.01 | 0.958 |
| CCN(CC)CC#CCOC(=O)C(O)(c1ccccc1)C1CCCCC1.[Cl-].[H+] (stereo not given) [Oxybutynin chloride] | 1.1 | 1.04 | 1.04 | 1.02 | 0.992 | 0.999 |
| C#C[C@]1(O)CC[C@H]2[C@@H]3CCC4=CC(=O)CC[C@@H]4[C@H]3C(=C)C[C@@]21CC [Etonogestrel] | 0.993 | 1.05 | 0.976 | 0.958 | 1.03 | 1 |
| Cc1cccc(C)c1NC1=NCCCS1.[Cl-].[H+] [Xylazine HCl] | 1.12 | 1.07 | 1.02 | 1.04 | 1.04 | 1.01 |
| C=C[C@@]1(C)CC(=O)[C@]2(O)[C@@]3(C)[C@@H](O)CCC(C)(C)[C@@H]3[C@H](O)[C@H](OC(C)=O)[C@@]2(C)O1 [Forskolin] | 1.02 | 1.04 | 0.924 | 0.984 | 1.01 | 1.03 |
| Cc1ccc(OCC(O)C(C)NC(C)C)c2c1CCC2.[Cl-].[H+] (stereo not given) | 1.11 | 1.07 | 1.06 | 1.04 | 1.05 | 1.01 |
